Measurements: US10512667B2, “Compositions and methods for treating conditions related to adrenocortical activity and/or excessive steroid production” (The Regents of the University of Michigan, priority 2017, dated 2019)
Entries after “also recorded” stand apart in the source; their conditions may differ.

Legend:
[1] = test system: adrenal cortex; conditions: WHHL rabbits; cited from earlier work
[2] = target: T1, MDR1 (Homo sapiens, UniProt P08183); conditions: cited from earlier work
T1 construct: measured the accumulation of doxorubicin in H295R cells; endogenous in cells; host or cells: H295R adrenocortical carcinoma cells

[3] = test system: H295R cells; experiment: Caspase 3/7 activity (Apo-ONE); format: cell-based; conditions: for caspase 3/7 activity, compound alone: serum-containing medium
Experimental: The samples were incubated for 18 h at room temperature in the dark. The fluorescence was measured using a SpectraMax M5 microplate reader with a 0.5 s acquisition time.

[4] = test system: H295R cells; experiment: Cellular ATP level (CellTiter-Glo); conditions: for ATP level, compound alone: serum-containing medium;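 as to all read-outs here: ATP quantified by luminescence after lysing the cells in CellTiter-Glo reagent, with compound exposure at 37 °C under 5% CO2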
Experimental: The ATP levels of cells were measured by lysis in CellTiter-Glo reagent (Promega), and measurement of the luminescence.
After 48 h, 20-80 μl of medium was removed from each well and replaced with 20 μl of each compound diluted to 6× of the final concentration in the culture medium to produce a final volume of 120 μl. The cells were incubated at 37 C in 5% CO2 atmosphere for a time ranging from 15 min to 24 h. The medium was removed and immediately replaced with 50 μl of CellTiter-Glo luminescence cell viability assay reagent (Promega). The cells were lysed by agitation at room temperature for 20 min in the dark. The luminescence was measured using a SpectraMax M5 microplate reader (Molecular Devices) with a 0.5 s acquisition time. The luminescence (RLU) values for control cells ranged from 5000 to 20000 RLU in all experiments, and were scaled by a factor of 0.001 to plot all graphs.

[5] = test system: H295R cells; experiment: Cholesterol crystallization and extracellular cholesterol associated with cells; format: cell-based; conditions: compound in combination with ATR-101
Experimental: To quantify cholesterol crystallization, experiments were conducted that measured the total extracellular cholesterol that was associated with the cells. After culturing cells with the indicated compounds, the culture medium was removed. Medium lacking cholesterol was added to the cells, and the extracellular cholesterol that was released into the wash medium was collected after 30 seconds. To establish if the cholesterol that was released from the cells was exported by ABCA1, the wash step was performed in parallel using media with and without 50 μM glibenclamide, which inhibits ABCA1 activity. The total amount of cell-associated cholesterol that was released into the wash medium was measured using a fluorometric enzyme-linked assay (Cayman Chemical). Cholesterol esters were hydrolyzed using cholesterol esterase. Cholesterol was oxidized by cholesterol oxidase, producing hydrogen peroxide. The hydrogen peroxide was reacted with 10-acetyl-3,7-dihydroxyphenoxazine (ADHP) in the presence of horseradish peroxidase to produce resorufin. Resorufin fluorescence was measured using 555 nm exitation and 590 nm emission wavelengths in a SpectraMax M5 microplate reader (Molecular Devices).
The medium was removed and replaced with 50 μl serum-free medium supplemented with 5 μg/mL apo-AI (without or with 50 μM glyburide to detect ABCA1 transporter-dependent efflux) for either 30 sec or 1 h at 37 C in 5% CO2 atmosphere. After the indicated time, the supernatant, was transferred to a new 96-well plate and a fluorometric-base cholesterol detection assay cocktail was added.

[6] = test system: H295R cells; experiment: Visualization of cholesterol levels by filipin III binding; format: cell-based
Experimental: The cells were seeded in 96-well ibiTreat μ-Plates and allowed to adhere for 48 h prior to the start of each experiment. Cholesterol was detected in fixed cells by incubating with 100 μg/ml filipin III at 37 C for 2 h. […] Images were captured using either a 4× or a 60× objective. Cholesterol esterification was visualized by culturing the cells with 1 μM NBD-cholesterol for 2 h following incubation with the indicated compounds. […] Images were captured using either a 20× or a 60× objective.
The medium was removed and immediately replaced with 100 μl of 4% paraformaldehyde and the cells were fixed at room temperature for 20 min. The cells were washed twice with 200 μl PBS. […] The fixed cells were incubated with filipin III at 37 C in the dark for 2 h.

[7] = test system: H295R cells; experiment: Cell morphology by phase contrast microscopy; format: cell-based; conditions: 30 h
Experimental: FIG. 4E: […] The cells were cultured with DMSO vehicle (upper images) or with 40 μM ATR-101 (lower images) alone (left images), or in combination with 1.5 mM MβCD (middle images), or in combination with 40 μM cholesterol (right images). Cell morphology was visualized by phase contrast microscopy using a 10× objective. The images are representative of 5 fields under each set of culture conditions. The scale bars denote 100 μm.

[8] = test system: H295R cells; experiment: Resazurin reducing potential; format: cell-based; conditions: 32 μM ATR-101 with 2 mM MβCD
Experimental: FIG. 4F: […] The cells were cultured with DMSO vehicle or 32 μM ATR-101 alone, or together with 2 mM MβCD. Resazurin fluorescence intensity was measured using a microplate reader at the indicated times at 37 C. The background signal of wells without resazurin was subtracted. […] DMSO control, *P<0.05).

[9] = H295R cells cultured with the compound together with ATR-101, 4 h
[10] = H295R cells cultured with the compound together with ATR-101, 24 h
[11] = H295R cells, serum-free, 50 μM each glibenclamide, benzamil, zosuquidar, 10 μM PD129337, 4 mM MβCD

Cc1ccc2oc(CN(Cc3ccccc3)C(=O)Nc3c(F)cc(F)cc3F)c(-c3ccc(Cl)cc3)c2c1 [FR145237]
adrenalytic effect in LDL deficient animals [1]: resistant

O[C@@H](COc1cccc2ncccc12)CN1CCN([C@@H]2c3ccccc3[C@@H]3[C@H](c4ccccc42)C3(F)F)CC1 [zosuquidar]
MDR1 inhibition [2]: selectively inhibits MDR1

methyl-β-cyclodextrin [MβCD]
effect on caspase 3/7 activation by ATR-101 [3, 9]: prevented ATP depletion and caspase activation; also recorded: suppressed | effect on caspase 3/7 activation by ATR-101 [3, 10]: prevented ATP depletion and caspase activation | caspase 3/7 activity, compound alone ([3]; H295R cells, 4 h): little effect | caspase 3/7 activity, compound alone ([3]; H295R cells, 24 h): little effect | effect on caspase activation by ATR-101 ([3]; H295R cells, serum-free medium, 100 μM ATR-101 with 4 mM MβCD): suppressed ATP depletion and caspase activation | caspase 3/7 activity with combinations of ABC transporter inhibitors [3, 11]: suppressed | effect on ATP depletion by ATR-101 [4, 9]: prevented ATP depletion; also recorded: suppressed the depletion of ATP | effect on ATP depletion by ATR-101 [4, 10]: prevented ATP depletion | effect on ATP depletion by ATR-101 in combination with ABC transporter inhibitors, substrates or U18666A ([4]; H295R cells, 2 mM MβCD): suppressed ATP depletion | ATP level, compound alone ([4]; H295R cells, 4 h): little effect | ATP level, compound alone ([4]; H295R cells, 24 h): little effect | effect on ATP depletion by ATR-101 ([4]; H295R cells, serum-free medium containing apoA-I, together with ATR-101): suppressed ATP depletion | effect on cholesterol crystallization in cells cultured with ATR-101 [5]: did not produce crystals; also recorded: blocked | effect on cholesterol accumulation caused by ATR-101 ([6]; H295R cells cultured with the compound together with ATR-101, 4 h or 24 h): prevented cholesterol accumulation; also recorded: blocked the effects of ATR-101 on cholesterol accumulation; also recorded: did not have a higher level of filipin III binding to the plasma membrane | cholesterol level (filipin III binding), compound alone ([6]; H295R cells, serum-free medium containing apoA-I, 4 h): reduced the basal level of cholesterol | effect on cholesterol accumulation caused by ATR-101 ([6]; H295R cells, serum-free medium, 100 μM ATR-101 with 4 mM MβCD, 4 h): suppressed the cholesterol accumulation | cholesterol level with combinations of ABC transporter inhibitors [6, 11]: reduced the cholesterol level | effect on the changes in cell morphology caused by ATR-101 ([7]; 40 μM ATR-101 with 1.5 mM MβCD or 40 μM cholesterol): remained flat and adherent for at least 30 h; also recorded: prevented | cell morphology, compound alone ([7]; phase contrast): little effect | effect on the increase in resazurin fluorescence caused by ATR-101 [8]: not inhibited
